These results are taken from patent publication US8815902B2, “Tetrahydroquinoline amide M1 receptor positive allosteric modulators” (Merck Sharp & Dohme Corp., priority 2010, dated 2014).

Like-named read-outs stand apart in the source and are kept apart here.

The experiment addresses T1, acetylcholine muscarinic M1 receptor (hM1) (Homo sapiens, UniProt P11229).
T1 construct: expressed in transfected cells; host or cells: CHOnfat cells (CHO, NFAT reporter background), Geneticin-selected; b186 also calls them CHOK1/hM1
T1 sequence (P11229 1-460): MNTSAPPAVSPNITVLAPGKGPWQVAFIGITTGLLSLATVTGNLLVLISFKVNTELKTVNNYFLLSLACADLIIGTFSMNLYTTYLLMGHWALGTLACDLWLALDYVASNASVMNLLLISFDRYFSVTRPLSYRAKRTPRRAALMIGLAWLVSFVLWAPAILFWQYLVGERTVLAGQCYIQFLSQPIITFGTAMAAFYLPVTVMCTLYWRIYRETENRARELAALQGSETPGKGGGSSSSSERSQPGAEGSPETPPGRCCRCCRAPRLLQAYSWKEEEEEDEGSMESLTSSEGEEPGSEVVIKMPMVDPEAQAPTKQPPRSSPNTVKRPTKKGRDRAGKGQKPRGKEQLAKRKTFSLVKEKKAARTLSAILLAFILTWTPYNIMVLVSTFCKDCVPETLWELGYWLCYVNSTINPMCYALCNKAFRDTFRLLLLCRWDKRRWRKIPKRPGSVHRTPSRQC
The experiment in a line: muscarinic FLIPR assay: intracellular calcium in CHOnfat/hM1 cells, potentiation of EC20 acetylcholine. The experiment is classed as cell-based. The protocol: The assay studies the effect of one or several concentrations of test compounds on basal or acetylcholine-stimulated Ca^2+ levels using FLIPR.
Compounds are prepared and subjected to a preincubation period of 4 min. Thereafter, a single EC20 concentration of acetylcholine is added to each well (3 nM final). The intracellular Ca^2+ level of each sample is measured and compared to an acetylcholine control to determine any modulatory activity.
Cells: CHOnfat/hM1, hM2, hM3 or hM4 cells are plated 24 hr before the assay at a density of 18,000 cells/well (100 μL) in a 384 well plate. CHOnfat/hM1 and CHOnfat/hM3 Growth Medium: 90% DMEM (Hi Glucose); 10% HI FBS; 2 mM L-glutamine; 0.1 mM NEAA; Pen-Strep; and 1 mg/ml Geneticin, are added. For M2Gqi5CHOnfat and M4Gqi5CHOnfat cells, an additional 600 ug/ml hygromycin is added.
Equipment: 384 well plate, 120 μL addition plate; 96-well Whatman 2 ml Uniplate Incubator, 37° C., 5% CO2; Skatron EMBLA-384 Plate Washer; Multimek Pipetting System; Genesis Freedom 200 System; Mosquito System; Temo Nanolitre Pipetting System; and FLIPR^384 Fluorometric Imaging Plate Reader System are used.
Buffers. Assay Buffer: Hanks Balanced Salt Solution, with 20 mM Hepes, 2.5 mM Probenecid (Sigma P-8761) first dissolved in 1 N NaOH, 1% Bovine Serum Albumin (Sigma A-9647). Dye Loading Buffer: Assay Buffer plus 1% Fetal Bovine Serum and Fluo-4AM/Pluronic Acid Mixture. 2 mM Fluo-4AM ester stock in DMSO (Molecular Probes F-14202) Concentration of 2 μM in buffer for a final concentration of 1 μM in Assay. 20% Pluronic Acid Solution stock, with concentration of 0.04% in Buffer, 0.02% in Assay.
65 μL of 2 mM Fluo-4AM are mixed with 130 μL of 20% Pluronic Acid. The resulting solution and 650 μL FBS is added to the assay buffer for a total volume of 65 mL. Positive Controls: 4-Br-A23187: 10 mM in DMSO; final concentration 10 μM. Acetylcholine: 10 mM in water, working stock at both 20 μM and 30 μM in assay buffer, final concentration of 10 μM. This is used to check the maximum stimulation of the CHOK1/hM1 cells. 20 μM (2×) acetylcholine is added in the preincubation part of the assay, and the 30 μM (3×) stock is added in the second part. (EC20) Acetylcholine: 10 mM in water, working stock of 9 nM (3×), and final concentration in assay is 3 nM. This is used after the preincubation with test compounds. Addition of the EC20 Acetylcholine to each well with a test compound will ascertain any modulator activity. 24 wells contain 3 nM Acetylcholine alone as a control.
Screening Plate Compounds are titrated in 96-well plates (columns 2-11), 100% DMSO, started at a concentration of 15 mM (150× stock concentration), and 3-fold serial dilutions using Genesis Freedom200 System. Four 96-well plates are combined into a 384-well plate using Mosquito Nanolitre Pipetting System by transferring 1 μl of serial diluted compounds to each well, and 1 mM acetylcholine (100× stock concentration) were added as a control. Using Temo, 49 μl assay buffer is added to each well of the 384-well plate right before assay.
In a 96-well Whatman 2 ml Uniplate, 9 nM Acetylcholine (3×) is pipetted into wells corresponding to the screening compounds, and into control wells. The 30 μM acetylcholine control (3×) is added into control wells, and the 3× agonist plate is transferred into a 384 well plate.
Cells are washed three times with 100 μL of buffer, leaving 30 μL of buffer in each well. Using Multimek, 30 μL of Dye Loading Buffer is added into each well and incubated at 37° C., 5% CO2 for up to one hr.
After 60 min, the cells are washed three times with 100 μL of buffer, leaving 30 μL of buffer in each well. The cell plate, screening plate, and agonist addition plates are placed on the platform in the FLIPR and the door closed. A signal test to check background fluorescence and basal fluorescence signal is performed. Laser intensity is adjusted if necessary. […]
Background: A change in cytosolic calcium serves as a functional read-out for many receptors and channels.

Where [1] appears, read: Table 1, EC20 acetylcholine (3 nM final), read-out: H Pot.
The mark [2] stands for this setting: Table 2, EC20 acetylcholine (3 nM final), read-out: M1 IP (inflection point).

As for `CC(C)(C)OC(=O)N1CC=C(Cc2cc(C(=O)N[C@H]3CCOC[C@@H]3O)nc3c2CCCC3)CC1` [Compound 23], the EC50 under setting [1] was determined as 620 nM.

As for `O=C(N[C@H]1CCOC[C@@H]1O)c1cc(Cc2ccc(-c3cccnc3)nc2)c2c(n1)CCCC2` [Compound 16], the EC50 under setting [1] came to 11 nM.

For the compound `COc1cncc(-c2ccc(Cc3cc(C(=O)N[C@H]4CCOC[C@@H]4O)nc4c3CCCC4)cn2)c1` [Compound 18], the EC50 under setting [1] stood at 7 nM.

Consider `Cc1ccc(-c2ccc(Cc3cc(C(=O)N[C@H]4CCOC[C@@H]4O)nc4c3CCCC4)cn2)cn1` [Compound 20], for which the EC50 under setting [1] turned out to be 7 nM.

For `O=C(N[C@H]1CCCC[C@@H]1O)c1cc(Cc2ccc(Cl)nc2)c2c(n1)CCCC2` [Compound 7], under setting [1], the EC50 came to 129 nM.

Turning to `CSc1ccc(Cc2cc(C(=O)N[C@H]3CCCC[C@@H]3O)nc3c2CCCC3)cn1` [Example 2, N-[(1S,2S)-2-Hydroxycyclohexyl]-4-{[6-(methylsulfanyl)pyridin-3-yl]methyl}-5,6,7,8-tetrahydroquinoline-2-carboxamide], the EC50 under setting [2] stood at 88 nM.

Take `O=C(N[C@H]1CCOC[C@@H]1O)c1cc(Cc2ccnc3ccccc23)c2c(n1)CCCC2` [Compound 14]: the EC50 under setting [1] stood at 33 nM.

As to `COc1ccc(Cc2cc(C(=O)N[C@H]3CCOC[C@@H]3O)nc3c2CCCC3)cn1` [Example 3, 1,5-Anhydro-2,3-dideoxy-3-[({4-[(6-methoxypyridin-3-yl)methyl]-5,6,7,8-tetrahydroquinolin-2-yl}carbonyl)amino]-L-threo-pentitol], under setting [2], the EC50 came out at 98 nM.

Take `O=C(N[C@H]1CCOC[C@@H]1O)c1cc(Cc2ccc(Cl)nc2)c2c(n1)CCCC2` [Example 1, 1,5-Anhydro-3[({4-[(6-chloropyridin-3-yl)methyl]-5,6,7,8-tetrahydroquinolin-2-yl}carbonyl)amino]-2,3-dideoxy-L-threo-pentitol]: the EC50 under setting [2] was determined as 102 nM.

Turning to `O=C(N[C@H]1CCCC[C@@H]1O)c1cc(Cc2ccc(-c3ccccc3)nc2)c2c(n1)CCCC2` [Compound 11], the EC50 under setting [1] was found to be 26 nM.

`COc1cc(Cc2cc(C(=O)N[C@H]3CCOC[C@@H]3O)nc3c2CCCC3)ccn1` [Compound 12]: the EC50 under setting [1] is 120 nM.

Consider `O=C(N[C@H]1CCOC[C@@H]1O)c1cc(Cc2cnc3ccccc3c2)c2c(n1)CCCC2` [Compound 15], for which the EC50 under setting [1] worked out at 11 nM.

On to `COc1ccc(-c2ccc(Cc3cc(C(=O)N[C@H]4CCCC[C@@H]4O)nc4c3CCCC4)cn2)cn1` [Compound 8], for which the EC50 under setting [1] was determined as 18 nM.

For the compound `O=C(NC1CCOCC1O)c1cc(Cc2ccn3ccnc3c2)c2c(n1)CCCC2` (stereo not drawn) [Compound 13], under setting [1], the EC50 is 80 nM.

For `O=C(N[C@H]1CCOC[C@@H]1O)c1cc(Cc2ccc(-c3cnccn3)nc2)c2c(n1)CCCC2` [Example 6, 1,5-Anhydro-2,3-dideoxy-3-{[(4-{[6-(pyrazin-2-yl)pyridine-3-yl]methyl}-5,6,7,8-tetrahydroquinolin-2-yl)carbonyl]amino}-L-threo-pentitol], the EC50 under setting [2] was determined as 115 nM.

With `COc1ccc(-c2ccc(Cc3cc(C(=O)N[C@H]4CCOC[C@@H]4O)nc4c3CCCC4)cn2)cn1` [Compound 22], the EC50 under setting [1] came to 17 nM.

Consider `Cc1cncc(-c2ccc(Cc3cc(C(=O)N[C@H]4CCOC[C@@H]4O)nc4c3CCCC4)cn2)c1` [Compound 21], for which the EC50 under setting [1] worked out at 6 nM.

With `O=C(N[C@H]1CCOC[C@@H]1O)c1cc(Cc2ccc(-c3ccc(F)nc3)nc2)c2c(n1)CCCC2` [Compound 17], under setting [1], the EC50 stood at 15 nM.

`CC(=O)N1CCC(Cc2cc(C(=O)N[C@H]3CCOC[C@@H]3O)nc3c2CCCC3)CC1` [Compound 24]: under setting [1], the EC50 was found to be 2240 nM.

Regarding `CC(=O)N1CC=C(Cc2cc(C(=O)N[C@H]3CCOC[C@@H]3O)nc3c2CCCC3)CC1` [Example 4, 3-[{(4-[(1-Acetyl-1,2,3,6-tetrahydropyridin-4-yl)methyl]-5,6,7,8-tetrahydroquinolin-2-yl}carbonyl)amino]-1,5-anhydro-2,3-dideoxy-L-threo-pentitol], the EC50 under setting [2] worked out at 654 nM.

Regarding `Cn1cc(-c2ccc(Cc3cc(C(=O)N[C@H]4CCOC[C@@H]4O)nc4c3CCCC4)cn2)cn1` [Example 5, 1,5-Anhydro-2,3-dideoxy-3-{[(4-{[6-(1-methyl-1H-pyrazol-4-yl)pyridine-3-yl]methyl}-5,6,7,8-tetrahydroquinolin-2-yl)carbonyl}amino]-L-threo-pentitol], the EC50 under setting [2] is 4 nM.

For the compound `O=C(N[C@H]1CCCC[C@@H]1O)c1cc(Cc2ccc(-c3cccnc3)nc2)c2c(n1)CCCC2` [Compound 9], the EC50 under setting [1] turned out to be 15 nM.

Turning to `O=C(N[C@H]1CCCC[C@@H]1O)c1cc(Cc2ccc(-c3ccc(F)nc3)nc2)c2c(n1)CCCC2` [Compound 10], the EC50 under setting [1] is 36 nM.

In the case of `O=C(N[C@H]1CCOC[C@@H]1O)c1cc(Cc2ccc(-c3cncc(F)c3)nc2)c2c(n1)CCCC2` [Compound 19], under setting [1], the EC50 is 23 nM.
